Experimental data: patent publication US8552064B2, “Suramin and derivatives thereof as topical microbicide and contraceptive” (Eastern Virginia Medical School, priority 2005, dated 2013)
Converted amounts (≈) assume the structure as drawn.

Assays:
[1] = system: sperm penetration in cervical mucus; assay: Modified One End Test (MOET), sperm penetration in bovine cervical mucus; type: cell-based
Description: Bovine cervical mucus was obtained from Humagen (Charlottesville, Va.) in the form of prepackaged flat capillary tubes (Penetrak®), kept frozen and thawed right prior to the experiment. The Modified One End Test (MOET) [(described in Doncel G. F., in “Barrier Contraceptives”, Wiley-Liss, Mauck C. K. et al. eds., pp. 147-162 (1994)] was used to determine the effect of compounds, such as suramin sodium described herein, on sperm penetration in cervical mucus. Each of the test compositions containing the compound to be tested were diluted in a saline solution, i.e., at 9 grams of NaCl per liter of water. Tubes of cervical mucus were broken open. The open end was placed in a container containing the test compound in saline. The test compound was allowed to diffuse for 30 minutes through the tube. A semen sample, obtained from normal healthy donors, was then diluted with a buffer solution to 60 million motile sperm per milliliter and mixed with the test compound sample (i.e., suramin sodium). The tube containing the test compound sample was then re-inserted into the container containing the mixed solution and stored in an incubator at 37° C. in an atmosphere of 5 percent carbon dioxide in air for 60 minutes. The container and tube were then removed from the incubator and the tube was visually analyzed under a microscope for the migration of motile vanguard sperm through the tube. The results are expressed as percentage of migration as compared to control samples. In the control samples, the tubes were incubated with saline containing no compound. […]

[2] = system: rabbit sperm; assay: Rabbit contraceptive efficacy, ex-vivo sperm mixing; type: in vivo; conditions: for inhibition of pregnancy rates (PR): 1 mM (1.4 mg/mL), Table 6: 0.1% (~1 mM); for Implantation Sites (Mean ± SD): 11 days post-insemination
Method: Semen was collected from New Zealand White (NZW) male rabbits with the aid of an artifical vagina, pooled and adjusted with a modified Tyrode's albumin lactate pyruvate (TALP) medium to 50 million motile sperm per milliliter. Ovulation was induced in females by injection of 200 IU of human chorionic gonadotropin (hCG) intravenously. Under the ex-vivo (in-vitro) mixing protocol, sperm were incubated with indicated suramin test compounds in a tube for 15 minutes at 37° C. prior to insemination (0.5 mL) as described in Anderson R. A., et al. J. Androl., 21: 862-875 (2000). […] Sperm-compound contact, in this case, took place in vivo, inside the vagina. Insemination and administration of the compound was performed with a flexible, 12 cm long polyurethane catheter. The main endpoints for both protocols were the number of implantation sites counted 11 days after insemination and pregnancy rate. Such sites were counted by visual inspection of the tubes.

[3] = system: HIV-1 IIIB; assay: Virus binding inhibition assay VBIA-IIIB in MT-2 cells; type: cell-based
Method: VBIAIIIB: MT-2 cells, compounds and virus (HIV-1 IIIB) were mixed together in 96-well plates and incubated for 2 h at 37° C. At the end of this incubation period, the 96-well plates were centrifuged for 10 minutes and approximately 175 μL of medium was removed using a multichannel pipettor and replaced with 175 μL of fresh media. […] Modulation of virus induced cytopathic effects was measured by determining percent reduction in optical density (O.D.) using an XTT (2,3-bis(2-methoxy-4-nitro-5-sulfophenyl)-5-[phenylamino)carbonyl]-2H-tetrazolium hydroxide) dye reduction assay. Virus-induced cytopathic effects and mechanical artifacts due to media removal were verified by microscopic observations (Anderson R. A., et al., J. Androl., 21: 862-875 (2000)). The results of this assay are provided herein.

[4] = system: SIV; assay: SIV reverse transcriptase assay; type: cell-based
Method: Reverse transcriptase activity, a measurement of virus replication, was measured in cell-free supernatants. Tritiated thymidine triphosphate (NEN) (TFP) was resuspended in distilled H2O at 5 Ci/mL. Poly rA and oligo dT were prepared as a stock solution which was kept at −20° C. The RT reaction buffer was prepared fresh on a daily basis and consisted of 125 μL 1.0 M EGTA, 125 μL dH2O, 110 μL 10% […], 50 μL 1.0 M Tris (pH 7.4), 50 μL 1.0 M DTT, and 40 μL 1.0 M MgCl2. These three solutions were mixed together in a ratio of 2 parts TTP, 1 part poly rA:oligo dT, and 1 part reaction buffer. Ten microliters (10 μL) of this reaction mixture was placed in a round bottom microtiter plate and 15 μL of virus containing supernatant added and mixed. The plate was incubated at 37° C. for 60 minutes. Following reaction, the reaction volume was spotted onto pieces of DE81 paper, washed 5 times for 5 minutes each in a 5% sodium phosphate buffer, 2 times for 1 minute each in distilled water, 2 times for 1 minute each in 70% ethanol, and then dried. Opti-Fluor 0 was added to each sample and incorporated radioactivity quantitated utilizing a Wallac 1450 Microbetaplus liquid scintillation counter. The results of this assay are provided herein.

[5] = system: murine cytomegalovirus (MCMV) binding to NIH3T3 fibroblasts; assay: Cytomegalovirus binding assay; type: cell-based
Method: In a cytomegalovirus binding assay, tritiated murine cytomegalovirus (MCMV) was incubated with NIH3T3 fibroblasts in a 24-well plate fixed (0.4% paraformaldehyde) for 2 hours at 37° C. (rocking) in the presence of media alone or media containing 1-1000 μg/mL suramin. Cells were then washed extensively and lysed with 1% SDS and triton X-100. Lysates were quantified for radioactivity (cpm) in a scintillation counter.

Cc1ccc(C(=O)Nc2ccc(S(=O)(=O)O)c3cc(S(=O)(=O)O)cc(S(=O)(=O)O)c23)cc1NC(=O)c1cccc(NC(=O)Nc2cccc(C(=O)Nc3cc(C(=O)Nc4ccc(S(=O)(=O)O)c5cc(S(=O)(=O)O)cc(S(=O)(=O)O)c45)ccc3C)c2)c1 [Suramin, 8,8′-(carbonylbis(imino-3,1-phenylenecarbonylimino(4-methyl-3,1-phenylene)carbonylimino))bis-1,3,5-naphthalene trisulfonic acid]
MOET % CTL ([1]; 6.25 mg/ml): 96.1 ± 0.9 % CTL
MOET % CTL ([1]; 12.5 mg/ml): 94.9 ± 2.2 % CTL
sperm impediment in MOET ([1]; 25 mg/mL or below): No significant sperm impediment
MOET % CTL ([1]; 25 mg/ml): 95.9 ± 1.4 % CTL
inhibition of sperm penetration in MOET ([1]; 50 mg/mL (5%)): only minor inhibition of sperm penetration
MOET % CTL ([1]; 50 mg/ml): 72.3 ± 7.1 % CTL
degree of inhibition of sperm penetration ([1]; KY, suramin sodium in KY and suramin sodium alone at the same concentration): ~4%
effect on PR ([2]; 0.1 mg/mL): did not significantly reduce PR
inhibition of pregnancy rates (PR) [2]: 86% inhibition
inhibition of pregnancy rates (PR) ([2]; listed as suramin sodium): 86%
inhibition, rabbit pretreated sperm ([2]; 5% in KY Jelly (Table 6)): 100% inhibition
prevention of pregnancies ([2]; five percent (5%) concentration): completely prevented pregnancies
Potency, Contraception, rabbit pretreated sperm (In-vitro mixing) ([2]; rabbit, in vivo): Moderate
Pregnancy Rate (%) ([2]; suramin 0.1 mg/ml): 83%
Implantation Sites (Mean ± SD) ([2]; suramin 0.1 mg/ml): 4.4 ± 0.8
Implantation Sites (Mean ± SD) ([2]; suramin 0.1 mg/ml, listed as suramin sodium): 4.4±0.8
Number of Pregnant Females/Total ([2]; suramin 0.1 mg/ml, sperm mixed 15 min before insemination): 5/6
Pregnancy Rate (%) ([2]; suramin 1.4 mg/ml): 14%
Number of Pregnant Females/Total ([2]; suramin 1.4 mg/ml (1 mM)): 1/7
Implantation Sites (Mean ± SD) ([2]; suramin 1.4 mg/ml): 1
Pregnancy Rate (%) ([2]; suramin 50 mg/ml): 0%
Number of Pregnant Females/Total ([2]; suramin 50 mg/ml (5%)): 0/7
Potency, HIV-1 VBIA-IIIb [3]: High
IC50 ([3]; Human immunodeficiency virus 1, IIIB, MT2, 72 hours incubation, read-out: IC50 against IIIB, viral entry assay): 7.3 µg/mL (≈ 5.63 µM)
Potency, SIV Reverse transcriptase [4]: High
IC50 ([4]; Simian immunodeficiency virus): 4 µg/mL (≈ 3.08 µM)
Potency, CMV Binding [5]: Moderate
IC50 ([5]; NIH3T3, read-out: IC50 CMV binding assay): 50 µg/mL (≈ 38.5 µM)
